Assay results from ChEMBL document CHEMBL1127814, “Preferred orientations in the binding of 4'-hydroxyacetanilide (acetaminophen) to cytochrome P450 1A1 and 2B1 isoforms as determined by 13C- and 15N-NMR relaxation studies” (J Med Chem, 1994).

Experiments:
Cytochrome P450 2B1 = molecular target: T1, Cytochrome P450 2B1 (Rattus norvegicus, UniProt P00176); assay: Spectral dissociation constant for rat liver Cytochrome P450 2B1; format: ADME; conditions: read-out: Ks
T1 sequence (P00176 whole entry): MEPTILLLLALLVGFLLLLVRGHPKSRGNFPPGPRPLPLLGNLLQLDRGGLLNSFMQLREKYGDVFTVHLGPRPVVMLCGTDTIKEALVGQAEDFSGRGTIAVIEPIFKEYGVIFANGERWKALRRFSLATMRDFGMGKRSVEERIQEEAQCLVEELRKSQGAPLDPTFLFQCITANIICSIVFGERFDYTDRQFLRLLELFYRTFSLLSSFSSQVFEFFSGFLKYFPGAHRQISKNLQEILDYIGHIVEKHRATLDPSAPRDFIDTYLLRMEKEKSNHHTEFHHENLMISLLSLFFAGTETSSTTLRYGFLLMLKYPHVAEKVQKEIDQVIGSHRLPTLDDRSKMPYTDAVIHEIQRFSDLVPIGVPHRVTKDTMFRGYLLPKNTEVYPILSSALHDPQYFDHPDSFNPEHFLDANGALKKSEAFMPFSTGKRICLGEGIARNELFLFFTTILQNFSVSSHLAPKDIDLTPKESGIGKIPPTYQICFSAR

Cytochrome P450 1A1 = molecular target: T2, Cytochrome P450 1A1 (Rattus norvegicus, UniProt P00185); assay: Spectral dissociation constant for rat liver Cytochrome P450 1A1; format: ADME; conditions: read-out: Ks
T2 sequence (P00185 whole entry): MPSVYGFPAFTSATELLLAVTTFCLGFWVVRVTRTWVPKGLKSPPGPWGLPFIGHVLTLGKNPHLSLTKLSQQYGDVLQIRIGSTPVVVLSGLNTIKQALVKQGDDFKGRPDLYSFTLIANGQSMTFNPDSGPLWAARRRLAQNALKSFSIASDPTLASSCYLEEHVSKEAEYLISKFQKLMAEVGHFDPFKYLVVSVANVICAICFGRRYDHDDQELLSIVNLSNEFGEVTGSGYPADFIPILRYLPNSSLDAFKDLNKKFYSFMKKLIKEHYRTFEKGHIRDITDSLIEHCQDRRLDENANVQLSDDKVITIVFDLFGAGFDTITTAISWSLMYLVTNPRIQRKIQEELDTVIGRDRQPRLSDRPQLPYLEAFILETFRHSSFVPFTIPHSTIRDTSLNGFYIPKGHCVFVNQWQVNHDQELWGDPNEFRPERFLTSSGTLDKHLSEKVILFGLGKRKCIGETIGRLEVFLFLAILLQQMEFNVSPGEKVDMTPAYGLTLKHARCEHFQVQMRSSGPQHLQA

- Kd (Cytochrome P450 2B1): 800 µM
- Kd (Cytochrome P450 1A1): 870 µM
Compound: CC(=O)Nc1ccc(O)cc1 [ACETAMINOPHEN]
